Measurements as given in PubChem BioAssay AID248 (DTP/NCI, 2004).
Several values for one entry are separate records, joined by “and”; a condition that tells them apart may be missing. Equal values may be shown once. Inconclusive results and toxic doses are left out. Cut-off read from the data, not from the text of the source: active = T/C of 150% or more; inactive = T/C below 125%.

Test system: L1210 leukemia ip in BDF1 mice, survival T/C
Assay: NCI In Vivo Anticancer Drug Screen. Data for tumor model L1210 Leukemia (intraperitoneal) in B6D2F1 (BDF1) mice
Conditions: endpoint: mean survival time, higher = longer survival
Procedure, shortened: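 Survival endpoint. Drug-treated group vs vehicle group, expressed as T divided by C. Tumor passaged by transplantation.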

[1] = dose: 100.0 mg/kg/injection, schedule: Q04DX003 (ip), vehicle: saline with Tween-80
[2] = dose: 200.0 mg/kg/injection, schedule: Q04DX003 (ip), vehicle: saline with Tween-80
[3] = dose: 400.0 mg/kg/injection, schedule: Q04DX003 (ip), vehicle: saline with Tween-80
[4] = dose: 75.0 mg/kg/injection, schedule: Q01DX001 (ip), vehicle: saline
[5] = dose: 150.0 mg/kg/injection, schedule: Q01DX001 (ip), vehicle: saline
[6] = dose: 100.0 mg/kg/injection, schedule: Q01DX001 (ip), vehicle: saline
[7] = dose: 200.0 mg/kg/injection, schedule: Q01DX001 (ip), vehicle: saline
[8] = dose: 400.0 mg/kg/injection, schedule: Q01DX001 (ip), vehicle: saline
[9] = dose: 100.0 mg/kg/injection, schedule: Q01DX009 (ip), vehicle: Klucel (hydroxypropylcellulose) (HPC)
[10] = dose: 100.0 mg/kg/injection, schedule: Q04DX003 (ip), vehicle: Klucel (hydroxypropylcellulose) (HPC)
[11] = dose: 200.0 mg/kg/injection, schedule: Q01DX009 (ip), vehicle: Klucel (hydroxypropylcellulose) (HPC)
[12] = dose: 200.0 mg/kg/injection, schedule: Q04DX003 (ip), vehicle: Klucel (hydroxypropylcellulose) (HPC)
[13] = dose: 400.0 mg/kg/injection, schedule: Q04DX003 (ip), vehicle: Klucel (hydroxypropylcellulose) (HPC)
[14] = dose: 200.0 mg/kg/injection, schedule: Q01DX001 (ip), vehicle: carboxymethylcellulose (CMC)
[15] = dose: 400.0 mg/kg/injection, schedule: Q01DX001 (ip), vehicle: carboxymethylcellulose (CMC)
[16] = dose: 100.0 mg/kg/injection, schedule: Q04DX003 (ip), vehicle: saline
[17] = dose: 200.0 mg/kg/injection, schedule: Q04DX003 (ip), vehicle: saline
[18] = dose: 400.0 mg/kg/injection, schedule: Q04DX003 (ip), vehicle: saline
[19] = dose: 100.0 mg/kg/injection, schedule: Q04DX002 (ip), vehicle: Klucel (hydroxypropylcellulose) (HPC)
[20] = dose: 100.0 mg/kg/injection, schedule: Q01DX009 (ip), vehicle: saline with Tween-80

Measured: T/C

O=C(Nc1cccc(Br)c1)c1ccc([N+](=O)[O-])s1
inactive: dose: 50.0 mg/kg/injection, schedule: Q01DX005 (ip), vehicle: water 89 % of control | dose: 100.0 mg/kg/injection, schedule: Q01DX005 (ip), vehicle: water 89 % of control | dose: 200.0 mg/kg/injection, schedule: Q01DX005 (ip), vehicle: water 89 % of control | dose: 400.0 mg/kg/injection, schedule: Q01DX005 (ip), vehicle: water 87 % of control

O=C(CCCl)Nc1cccc2c1C(=O)c1c(c(O)c3ccccc3c1O)C2=O
inactive: [1] 90 % of control | [2] 92 % of control | [3] 91 % of control

CCN(CC)CCNC(=O)c1ccc2nc(N)sc2c1
inactive: [4] 96 % of control | [5] 91 % of control

NNc1nc(Nc2ccccc2)nc(Nc2ccccc2)n1
inactive: [6] 89 % of control | [7] 95 % of control | [8] 96 % of control

COC(=O)Nc1cccc2c1C=CC(C#N)N2C(=O)OC (centres undefined)
inactive: [9] 93 % of control | [10] 87 % of control | [11] 100 % of control | [12] 91 % of control | [13] 100 % of control

Cc1cc(NS(=O)(=O)c2ccc(N=Nc3c(N)nc(N)nc3N)cc2)nc(C)n1
inactive: dose: 100.0 mg/kg/injection, schedule: Q01DX001 (ip), vehicle: carboxymethylcellulose (CMC) 103 % of control | [14] 97 % of control | [15] 105 % of control

CC(C)(SCCc1ccc([N+](=O)[O-])cc1)C(N)C(=O)O (centres undefined)
inactive: dose: 12.0 mg/kg/injection, schedule: Q01DX009 (ip), vehicle: Klucel (hydroxypropylcellulose) (HPC) 93 % of control | dose: 12.5 mg/kg/injection, schedule: Q04DX003 (ip), vehicle: Klucel (hydroxypropylcellulose) (HPC) 91 % of control | dose: 25.0 mg/kg/injection, schedule: Q01DX009 (ip), vehicle: Klucel (hydroxypropylcellulose) (HPC) 104 % of control | dose: 25.0 mg/kg/injection, schedule: Q04DX003 (ip), vehicle: Klucel (hydroxypropylcellulose) (HPC) 91 % of control | dose: 50.0 mg/kg/injection, schedule: Q01DX009 (ip), vehicle: Klucel (hydroxypropylcellulose) (HPC) 103 % of control | dose: 50.0 mg/kg/injection, schedule: Q04DX003 (ip), vehicle: Klucel (hydroxypropylcellulose) (HPC) 93 % of control

CC(C)(C)OOC(=O)c1ccccc1O
inactive: dose: 100.0 mg/kg/injection, schedule: Q01DX009 (ip), vehicle: saline sonified 113 % of control | [16] 106 % of control | [17] 106 % of control | [18] 110 % of control

c1ccc(-c2csnn2)cc1
inactive: [14] 91 % of control | [15] 115 % of control

N#C/C(=C1C=C/C(=N/O)C(Br)=C/1)c1ccccc1
inactive: [1] 96 % of control | [2] 100 % of control | [3] 98 % of control

Cc1c(O)c2cccc(-c3ccccc3)c2oc1=O
inactive: [16] 87 % of control | [17] 91 % of control | [18] 109 % of control

O=C(O)c1cc(=O)[nH]c(=O)[nH]1
inactive: [19] 100 % of control

CCCP(=S)(CCC)Oc1ccc([N+](=O)[O-])cc1
inactive: [4] 95 % of control | [5] 98 % of control

CNCCN(C)Cc1ccccc1
inactive: dose: 25.0 mg/kg/injection, schedule: Q01DX009 (ip), vehicle: saline 101 % of control | dose: 25.0 mg/kg/injection, schedule: Q04DX003 (ip), vehicle: saline 106 % of control | dose: 50.0 mg/kg/injection, schedule: Q01DX009 (ip), vehicle: saline 97 % of control | dose: 50.0 mg/kg/injection, schedule: Q04DX003 (ip), vehicle: saline 98 % of control | dose: 100.0 mg/kg/injection, schedule: Q01DX009 (ip), vehicle: saline 98 % of control | [16] 98 % of control and 91 % of control

O=CN1CCCCC1
inactive: [6] 97 % of control | [7] 105 % of control

c1ccc2[nH]c(C(=C(c3nc4ccccc4[nH]3)c3nc4ccccc4[nH]3)c3nc4ccccc4[nH]3)nc2c1
inactive: dose: 100.0 mg/kg/injection, schedule: Q01DX001 (ip), vehicle: Klucel (hydroxypropylcellulose) (HPC) 87 % of control | [10] 97 % of control | dose: 200.0 mg/kg/injection, schedule: Q01DX001 (ip), vehicle: Klucel (hydroxypropylcellulose) (HPC) 87 % of control | [12] 112 % of control | [13] 90 % of control

CCOC(=O)C1CC2(Cl)C(Cl)=C(Cl)C1(Cl)C2(Cl)Cl (centres undefined)
inactive: [6] 98 % of control | [16] 94 % of control | [7] 93 % of control | [17] 94 % of control | [8] 98 % of control | [18] 93 % of control

O=C(Nc1cccc2ccccc12)c1ccc(Cl)cc1Cl
inactive: [9] 103 % of control | [11] 100 % of control | dose: 400.0 mg/kg/injection, schedule: Q01DX009 (ip), vehicle: Klucel (hydroxypropylcellulose) (HPC) 96 % of control

CN(/N=C/c1ccccn1)C(N)=S
inactive: dose: 75.0 mg/kg/injection, schedule: Q01DX001 (ip), vehicle: carboxymethylcellulose (CMC) 96 % of control | dose: 150.0 mg/kg/injection, schedule: Q01DX001 (ip), vehicle: carboxymethylcellulose (CMC) 96 % of control | dose: 300.0 mg/kg/injection, schedule: Q01DX001 (ip), vehicle: carboxymethylcellulose (CMC) 97 % of control

Nc1nc(N)c(-c2ccc(Cl)c(Cl)c2)c(CO)n1
inactive: [1] 98 % of control | [2] 107 % of control | [3] 117 % of control

Cc1cc(/C=N/Nc2ccc3cccc(O)c3n2)c(O)c2ncccc12
inactive: [14] 93 % of control

COc1cc(Nc2ccc(O)c(CN3CCCCC3)c2)c2ncccc2c1
inactive: dose: 75.0 mg/kg/injection, schedule: Q01DX001 (ip), vehicle: other 98 % of control | dose: 150.0 mg/kg/injection, schedule: Q01DX001 (ip), vehicle: other 98 % of control | dose: 300.0 mg/kg/injection, schedule: Q01DX001 (ip), vehicle: other 91 % of control

N#CCSc1nc(N)nc2nc[nH]c12
inactive: dose: 62.5 mg/kg/injection, schedule: Q01DX Z (ip), vehicle: methylcellulose (MC) 101 % of control | dose: 125.0 mg/kg/injection, schedule: Q01DX Z (ip), vehicle: methylcellulose (MC) 105 % of control

CC(C)C(CN)(CCCN1CCOCC1)c1cccc2ccccc12 (centres undefined)
inactive: [20] 94 % of control | dose: 200.0 mg/kg/injection, schedule: Q01DX009 (ip), vehicle: saline with Tween-80 89 % of control

CC(=Nc1cccnc1)c1ccccc1
inactive: dose: 15.0 mg/kg/injection, schedule: Q01DX001 (ip), vehicle: carboxymethylcellulose (CMC) 98 % of control | dose: 30.0 mg/kg/injection, schedule: Q01DX001 (ip), vehicle: carboxymethylcellulose (CMC) 97 % of control

OCc1cc(Cl)cc(Cl)c1O
inactive: [20] 97 % of control | [1] 97 % of control | [2] 98 % of control | [3] 101 % of control

CCOC(CCc1c(-c2ccccc2)nc(N)[nH]c1=O)OCC
inactive: dose: 100.0 mg/kg/injection, schedule: Q01DX009 (ip), vehicle: other 110 % of control | dose: 200.0 mg/kg/injection, schedule: Q01DX009 (ip), vehicle: other 102 % of control | dose: 400.0 mg/kg/injection, schedule: Q01DX009 (ip), vehicle: other 93 % of control

COc1c(NC(=O)c2c(Br)c(Br)c(Br)c(Br)c2C(=O)O)cccc1[N+](=O)[O-]
inactive: [19] 94 % of control | dose: 200.0 mg/kg/injection, schedule: Q04DX002 (ip), vehicle: Klucel (hydroxypropylcellulose) (HPC) 102 % of control | dose: 400.0 mg/kg/injection, schedule: Q04DX002 (ip), vehicle: Klucel (hydroxypropylcellulose) (HPC) 118 % of control
